EC50 data for two compounds are collected here from ChEMBL document CHEMBL1151411, “Plant Anticancer Agents. XIII. Constituents of Austrocedrus chilensis” (1983).

The experiment has as its system KB. Kind of experiment: Cytotoxicity against human KB cells. The format is functional. The following applies: read-out: ED50 (the source's name).

Values after ≈ are worked out from the molar mass of the structure shown.

As to `CC(C)c1cc2c(cc1O)[C@@]1(CO)CCCC(C)(C)[C@@H]1CC2` [PISIFEROL], the EC50 came to 100 µg/mL (≈ 331 µM).

`CC(C)C1=CC2(O)CC[C@H]3C(C)(C)CCC[C@]3(CO)C2=CC1=O` (some centres not stated): the EC50 amounted to 16 µg/mL (≈ 50.2 µM).
